# According to PubChem BioAssay AID1963849 (Molecular Pharmacology Branch, DTP, NCI, 2024):
# System: 299254-011-R-J1-PDC complex spheroid viability
# Assay: Anticancer human tumor 299254-011-R-J1-PDC patient-derived melanoma cell line growth inhibition [POLQ]
# Conditions: for IC50: curve of first compound; for viability, T/C: stronger effect = lower value
# Summary of the method: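 Three-cell-type spheroids modelling solid tumor plus stroma served as the readout system; POL inhibitors were tested individually and in combination, concentration ranges set by clinical Cmax where known.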
# [1] = second compound 0.0316 µM, first compound 0.0316 µM
# [2] = second compound 0.0316 µM, first compound 0.1 µM
# [3] = second compound 0.0316 µM, first compound 0.316 µM
# [4] = second compound 0.0316 µM, first compound 1 µM
# [5] = second compound 0.0316 µM, first compound 3.16 µM
# [6] = second compound 0.0316 µM, first compound 10 µM
# [7] = second compound 0.1 µM, first compound 0.0316 µM
# [8] = second compound 0.1 µM, first compound 0.1 µM
# [9] = second compound 0.1 µM, first compound 0.316 µM
# [10] = second compound 0.1 µM, first compound 1 µM
# [11] = second compound 0.1 µM, first compound 3.16 µM
# [12] = second compound 0.1 µM, first compound 10 µM
# [13] = second compound 0.316 µM, first compound 0.0316 µM
# [14] = second compound 0.316 µM, first compound 0.1 µM
# [15] = second compound 0.316 µM, first compound 0.316 µM
# [16] = second compound 0.316 µM, first compound 1 µM
# [17] = second compound 0.316 µM, first compound 3.16 µM
# [18] = second compound 0.316 µM, first compound 10 µM
# [19] = second compound 1 µM, first compound 0.0316 µM
# [20] = second compound 1 µM, first compound 0.1 µM
# [21] = second compound 1 µM, first compound 0.316 µM
# [22] = second compound 1 µM, first compound 1 µM
# [23] = second compound 1 µM, first compound 3.16 µM
# [24] = second compound 1 µM, first compound 10 µM
# [25] = second compound 3.16 µM, first compound 0.0316 µM
# [26] = second compound 3.16 µM, first compound 0.1 µM
# [27] = second compound 3.16 µM, first compound 0.316 µM
# [28] = second compound 3.16 µM, first compound 1 µM
# [29] = second compound 3.16 µM, first compound 3.16 µM
# [30] = second compound 3.16 µM, first compound 10 µM
# [31] = second compound 10 µM, first compound 0.0316 µM
# [32] = second compound 10 µM, first compound 0.1 µM
# [33] = second compound 10 µM, first compound 0.316 µM
# [34] = second compound 10 µM, first compound 1 µM
# [35] = second compound 10 µM, first compound 3.16 µM
# [36] = second compound 10 µM, first compound 10 µM
# 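Further: spheroids exposed to drugs for one week before measurement.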
# 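Wherever viability, T/C is given: percent viability relative to DMSO vehicle control taken as 100%.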
structure (smiles),measurement,setting,value
C#Cc1c(F)ccc2cc(O)cc(-c3ncc4c(N5CC6CCC(C5)N6)nc(OCC56CCCN5CC(F)C6)nc4c3F)c12 (stereo unspecified) + COC1C(OC(N)=O)C(O)C(Oc2ccc3c(O)c(NC(=O)c4ccc(O)c(CC=C(C)C)c4)c(=O)oc3c2C)OC1(C)C,IC50,second compound 0.0316 µM,> 10 µM
same,IC50,second compound 0.1 µM,> 10 µM
same,IC50,second compound 0.316 µM,> 10 µM
same,IC50,second compound 1 µM,> 10 µM
same,IC50,second compound 3.16 µM,> 10 µM
same,IC50,second compound 10 µM,> 10 µM
same,"viability, T/C",[1],87.2%
same,"viability, T/C",[2],125%
same,"viability, T/C",[3],105%
same,"viability, T/C",[4],115%
same,"viability, T/C",[5],96.4%
same,"viability, T/C",[6],79.7%
same,"viability, T/C",[7],102%
same,"viability, T/C",[8],99.2%
same,"viability, T/C",[9],99.2%
same,"viability, T/C",[10],114%
same,"viability, T/C",[11],94.8%
same,"viability, T/C",[12],80.9%
same,"viability, T/C",[13],110%
same,"viability, T/C",[14],104%
same,"viability, T/C",[15],107%
same,"viability, T/C",[16],114%
same,"viability, T/C",[17],105%
same,"viability, T/C",[18],72.7%
same,"viability, T/C",[19],104%
same,"viability, T/C",[20],98.2%
same,"viability, T/C",[21],105%
same,"viability, T/C",[22],136%
same,"viability, T/C",[23],102%
same,"viability, T/C",[24],79.4%
same,"viability, T/C",[25],114%
same,"viability, T/C",[26],109%
same,"viability, T/C",[27],106%
same,"viability, T/C",[28],109%
same,"viability, T/C",[29],101%
same,"viability, T/C",[30],70.6%
same,"viability, T/C",[31],93.9%
same,"viability, T/C",[32],99.7%
same,"viability, T/C",[33],111%
same,"viability, T/C",[34],101%
same,"viability, T/C",[35],111%
same,"viability, T/C",[36],69.2%
O=C(Nc1ccc(O)c(NS(=O)(=O)c2ccc(F)cc2)c1)c1ccc(-c2ccccc2)cc1 + Cc1cccc(N(C)C(=O)C2C(O)CCN2c2nc(C)cc(C(F)(F)F)c2C#N)c1,IC50,second compound 0.0316 µM,> 10 µM
same,IC50,second compound 0.1 µM,9.45 µM
same,IC50,second compound 0.316 µM,> 10 µM
same,IC50,second compound 1 µM,> 10 µM
same,IC50,second compound 3.16 µM,9.75 µM
same,IC50,second compound 10 µM,8.66 µM
same,"viability, T/C",[1],102%
same,"viability, T/C",[2],99.2%
same,"viability, T/C",[3],92.7%
same,"viability, T/C",[4],104%
same,"viability, T/C",[5],99.3%
same,"viability, T/C",[6],54.8%
same,"viability, T/C",[7],105%
same,"viability, T/C",[8],107%
same,"viability, T/C",[9],98%
same,"viability, T/C",[10],107%
same,"viability, T/C",[11],96.3%
same,"viability, T/C",[12],47.3%
same,"viability, T/C",[13],102%
same,"viability, T/C",[14],115%
same,"viability, T/C",[15],98.2%
same,"viability, T/C",[16],123%
same,"viability, T/C",[17],93.7%
same,"viability, T/C",[18],56.2%
same,"viability, T/C",[19],106%
same,"viability, T/C",[20],111%
same,"viability, T/C",[21],109%
same,"viability, T/C",[22],104%
same,"viability, T/C",[23],90.7%
same,"viability, T/C",[24],53%
same,"viability, T/C",[25],108%
same,"viability, T/C",[26],103%
same,"viability, T/C",[27],101%
same,"viability, T/C",[28],94.8%
same,"viability, T/C",[29],100%
same,"viability, T/C",[30],48.9%
same,"viability, T/C",[31],98.7%
same,"viability, T/C",[32],98%
same,"viability, T/C",[33],93.6%
same,"viability, T/C",[34],110%
same,"viability, T/C",[35],83.4%
same,"viability, T/C",[36],45.2%
CC1COCCN1c1cc(-c2ccnn2C)c2ccnc(-c3ccn[nH]3)c2n1 (stereo unspecified) + Nc1ccc(C#CCN(C(=O)Cc2ncc(C(F)(F)F)cc2C(F)(F)F)c2ccc(F)cc2)nn1,IC50,second compound 0.0316 µM,0.311 µM
same,IC50,second compound 0.1 µM,0.226 µM
same,IC50,second compound 0.316 µM,0.295 µM
same,IC50,second compound 1 µM,0.264 µM
same,IC50,second compound 3.16 µM,0.179 µM
same,IC50,second compound 10 µM,0.16 µM
same,"viability, T/C",[1],87.8%
same,"viability, T/C",[2],80.3%
same,"viability, T/C",[3],43.7%
same,"viability, T/C",[4],36.3%
same,"viability, T/C",[5],22.3%
same,"viability, T/C",[6],18.7%
same,"viability, T/C",[7],102%
same,"viability, T/C",[8],70.9%
same,"viability, T/C",[9],41.9%
same,"viability, T/C",[10],27.8%
same,"viability, T/C",[11],23.2%
same,"viability, T/C",[12],25.4%
same,"viability, T/C",[13],102%
same,"viability, T/C",[14],70.5%
same,"viability, T/C",[15],50.4%
same,"viability, T/C",[16],31.2%
same,"viability, T/C",[17],28.1%
same,"viability, T/C",[18],19.5%
same,"viability, T/C",[19],88.7%
same,"viability, T/C",[20],68.5%
same,"viability, T/C",[21],43.8%
same,"viability, T/C",[22],33.8%
same,"viability, T/C",[23],31.2%
same,"viability, T/C",[24],19.6%
same,"viability, T/C",[25],84.7%
same,"viability, T/C",[26],62.6%
same,"viability, T/C",[27],36.3%
same,"viability, T/C",[28],32.4%
same,"viability, T/C",[29],19.9%
same,"viability, T/C",[30],25.4%
same,"viability, T/C",[31],82.5%
same,"viability, T/C",[32],54.6%
same,"viability, T/C",[33],42.6%
same,"viability, T/C",[34],33.2%
same,"viability, T/C",[35],20.7%
same,"viability, T/C",[36],25.2%
